The target of data set [1] is T1, PER-1 (Pseudomonas aeruginosa, UniProt P37321).
T1 sequence (P37321 27-308): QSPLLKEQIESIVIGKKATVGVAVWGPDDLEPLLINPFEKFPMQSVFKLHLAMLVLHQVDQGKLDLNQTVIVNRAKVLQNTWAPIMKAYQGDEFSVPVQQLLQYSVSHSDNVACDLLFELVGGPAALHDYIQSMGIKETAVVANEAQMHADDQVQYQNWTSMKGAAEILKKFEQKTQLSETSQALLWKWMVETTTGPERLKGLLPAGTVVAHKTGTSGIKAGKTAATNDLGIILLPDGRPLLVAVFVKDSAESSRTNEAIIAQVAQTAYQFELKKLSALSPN
As to the kind of experiment: Direct competition inhibition assay with nitrocefin, PER-1. Format: biochemical.

Data set [2] deals with T2, PER-4 (Pseudomonas aeruginosa, UniProt P37321, S135T).
T2 sequence (P37321 27-308 S135T): T1 sequence (P37321 27-308) with S109T
The data set is described as follows: Direct competition inhibition assay with nitrocefin, PER-4. Format: biochemical. To be noted: for fold higher IC50 value against PER-4 than against wild-type PER-1: PER-4 vs PER-1.

Data set [3] has as its system PER-producing P. aeruginosa clinical isolates. As to the kind of experiment: microbe, parasite or virus in culture. In kind it is cell-based, Pseudomonas aeruginosa. Conditions: for MIC range / % resistance: 56 PER-producing PA strains; for % resistance: share of isolates resistant; for MIC50 / MIC90 / MIC: Pseudomonas aeruginosa.
Data set [4] concerns PAO1 transconjugants carrying blaPER-1 plasmids. The data set is described as follows: Broth microdilution MIC, transconjugants and recipient PAO1-Rrif. In kind it is cell-based. Conditions: Pseudomonas aeruginosa. Background: In broth dilution the organism is exposed to a series of concentrations in liquid medium.
In the next data set the test system is Recombinant PAO1 strains. As to the kind of experiment: Broth microdilution MIC, recombinant PAO1 strains carrying blaPER. Format: cell-based. Conditions: Pseudomonas aeruginosa.
The target in data set [5] is T2, PER-4. As to the kind of experiment: Steady-state enzyme kinetics, purified PER-4. In kind it is biochemical. Conditions: for Km / kcat: room temperature, 1×PBS pH 7.2.
Data set [6] deals with T1, PER-1. As to the kind of experiment: Steady-state enzyme kinetics, purified PER-1. Format: biochemical.
Substrate in data set [7]: CC(C)(O/N=C(\C(=O)N[C@@H]1C(=O)N2C(C(=O)[O-])=C(C[n+]3ccccc3)CS[C@H]12)c1csc(N)n1)C(=O)O
The data set is described as follows: Steady-state enzyme kinetics, purified PER-1. Format: biochemical, Pseudomonas aeruginosa. To be noted: other: PER-1, room temperature, 1×PBS pH 7.2.

Substrate in data set [8]: O=C(Cc1cccs1)N[C@@H]1C(=O)N2C(C(=O)O)=C(/C=C/c3ccc([N+](=O)[O-])cc3[N+](=O)[O-])CS[C@H]12
As to the kind of experiment: Steady-state enzyme kinetics, purified PER-1. Conditions: other: PER-1, room temperature, 1×PBS pH 7.2. In kind it is biochemical, Pseudomonas aeruginosa.

[9] abbreviates: PAO1, transconjugant PAO1/pPA268.
The mark [10] stands for this setting: PAO1, transconjugant PAO1/pPA272.
[11] abbreviates: PAO1, transconjugant PAO1/pPA282.
[12] abbreviates: PAO1, transconjugant PAO1/pPA975.
Setting [13] is: PAO1, transconjugant PAO1/pPA1017.
[14] abbreviates: PAO1, transconjugant PAO1/pPA1018.

Where a chain is given by its changes, count along the chain named. Values after ≈ are worked out from the molar mass of the structure shown.

As a reminder, the IC50 is the concentration that gives 50% inhibition. Lower therefore signals greater potency. What is called Ki is the equilibrium dissociation constant of an inhibitor or competing ligand from its target. On PER-1 [1], `NC(=O)[C@@H]1CC[C@@H]2CN1C(=O)N2OS(=O)(=O)O` [Avibactam] registered an IC50 of 0.217 µM and a Ki of 0.191 ± 0.004 µM. Further, at PER-4 [2], the IC50 came to 729 µM; the affinity, expressed as Ki, was 473 ± 29.2 µM; the “fold higher IC50 value against PER-4 than against wild-type PER-1” value was around 3359 fold.

A word on the Km: it is the substrate concentration at which the rate is half of its maximum. The kcat is the number of substrate molecules converted per active site and unit of time at saturation. As for `CC(C)(O/N=C(\C(=O)N[C@@H]1C(=O)N2C(C(=O)[O-])=C(C[n+]3ccccc3)CS[C@H]12)c1csc(N)n1)C(=O)O` [CAZ, ceftazidime], the MIC range in data set [3] is above 128 µg/mL. In addition, the “% resistance” value was determined as 100.00% in data set [3] and 100% in data set [3] (listed as ceftazidime). This molecule also returned an MIC50 in [3] above 128 µg/mL. Further, in [3], the MIC90 was above 128 µg/mL. For the same molecule, the MIC in data set [3] (isolate PA268), in [3] (isolate PA272), in data set [3] (isolate PA282), in [3] (isolate PA975), in data set [3] (isolate PA1017) and in data set [3] (isolate PA1018) was above 128 µg/mL each time. Moreover, the MIC in [4] (setting [9]) is above 128 µg/mL; in data set [4] (setting [10]) it was above 128 µg/mL; in [4] (setting [11]), above 128 µg/mL; in data set [4] (setting [12]), 128 µg/mL (≈ 234 µM); in data set [4] (setting [13]), above 128 µg/mL; in data set [4] (setting [14]), above 128 µg/mL. The MIC in the data set on Recombinant PAO1 strains (PAO1) is 1 µg/mL; in the data set with Recombinant PAO1 strains (PAO1, strain PAO1-pGK1900 (empty vector)), 2 µg/mL; with Recombinant PAO1 strains (PAO1, strain PAO1-pGK1900-PER1), above 128 µg/mL; in the data set with Recombinant PAO1 strains (PAO1, strain PAO1-pGK1900-PER4), above 128 µg/mL. In addition, the Km on PER-4 [5] came to 726 µM. Further, on PER-4 [5], the kcat was 607.66 s⁻¹.

At PER-1 [1], `O=C(O)[C@H]1/C(=C/CO)O[C@@H]2CC(=O)N21` [Clavulanic acid] registered an IC50 of 0.027 µM and a Ki of 0.024 ± 0.0004 µM. For the same molecule, on PER-4 [2], the IC50 was 0.152 µM, the Ki came to 0.099 ± 0.0006 µM and the “fold higher IC50 value against PER-4 than against wild-type PER-1” value was around 5.6 fold.

Molecule `C[C@@H](O)[C@H]1C(=O)N2C(C(=O)O)=C(SCCN=CN)C[C@H]12` [IPM, imipenem] returned an MIC range in data set [3] of 0.5 to 64 µg/mL. Further, the “% resistance” value in data set [3] was 92.86%. In data set [3], this molecule registered an MIC50 of 16 µg/mL (≈ 53.4 µM). Also, the MIC90 in data set [3] was found to be 32 µg/mL (≈ 107 µM). The MIC turned out to be 16 µg/mL (≈ 53.4 µM) in data set [3] (isolate PA268); 16 µg/mL (≈ 53.4 µM) in data set [3] (isolate PA272); 16 µg/mL (≈ 53.4 µM) in [3] (isolate PA282); 16 µg/mL (≈ 53.4 µM) in data set [3] (isolate PA975); 32 µg/mL (≈ 107 µM) in data set [3] (isolate PA1017); 32 µg/mL (≈ 107 µM) in data set [3] (isolate PA1018). For the same molecule, the values for the MIC (in data set [4] (setting [10]); in data set [4] (setting [14]); with Recombinant PAO1 strains (PAO1)) were 2 µg/mL (≈ 6.68 µM), 32 µg/mL (≈ 107 µM) and 1 µg/mL, respectively. Moreover, the imipenem hydrolysis activity result at PER-1 [6] (PER-1) and at PER-4 [5] was “hardly any detectable” each time.

As for `O=C(Cc1cccs1)N[C@@H]1C(=O)N2C(C(=O)O)=C(/C=C/c3ccc([N+](=O)[O-])cc3[N+](=O)[O-])CS[C@H]12` [Nitrocefin], the “fold lower nitrocefin hydrolysis activity of PER-1 than PER-4” value on PER-1 [6] (PER-1 vs PER-4) is around 1.7 fold. Further, at PER-4 [5], the Km was found to be 18.5 µM and the kcat was 224.03 s⁻¹.

With `CCN1CCN(C(=O)N[C@@H](C(=O)N[C@@H]2C(=O)N3[C@@H]2SC(C)(C)[C@@H]3C(=O)O)c2ccccc2)C(=O)C1=O` [PIP, piperacillin], in [3], the “% resistance” value was found to be 98.21%. The molecule also yielded an MIC50 in data set [3] above 128 µg/mL. In [3], this molecule showed an MIC90 above 128 µg/mL. For the same molecule, the MIC was above 128 µg/mL in data set [3] (isolate PA268); above 128 µg/mL in data set [3] (isolate PA272); above 128 µg/mL in data set [3] (isolate PA282); 128 µg/mL (≈ 247 µM) in data set [3] (isolate PA975); above 128 µg/mL in data set [3] (isolate PA1017); above 128 µg/mL in data set [3] (isolate PA1018). Moreover, the MIC is above 128 µg/mL in data set [4] (setting [9]); above 128 µg/mL in data set [4] (setting [10]); above 128 µg/mL in data set [4] (setting [11]); 128 µg/mL (≈ 247 µM) in data set [4] (setting [12]); 128 µg/mL (≈ 247 µM) in data set [4] (setting [13]); above 128 µg/mL in data set [4] (setting [14]). The MIC came out at 4 µg/mL with Recombinant PAO1 strains (PAO1); 32 µg/mL with Recombinant PAO1 strains (PAO1, strain PAO1-pGK1900-PER1); 16 µg/mL with Recombinant PAO1 strains (PAO1, strain PAO1-pGK1900-PER4).

With `C[C@]1(Cn2ccnn2)[C@H](C(=O)O)N2C(=O)C[C@H]2S1(=O)=O` [Tazobactam], at PER-1 [1], the IC50 was 0.363 µM and the affinity corresponds to a Ki of 0.32 ± 0.0131 µM. Besides, on PER-4 [2], the IC50 amounted to 1090 µM, the Ki was determined as 707 ± 97.7 µM and the “fold higher IC50 value against PER-4 than against wild-type PER-1” value was around 3002 fold.

B1: PER-1 (Pseudomonas aeruginosa) (protein)
chain: T1 sequence (P37321 27-308)
For the molecule B1, in data set [7], the Km is 668.75 µM and the kcat worked out at 537 s⁻¹. Besides, in data set [8], the Km was 72.92 µM and the kcat stood at 512 s⁻¹.

Values taken from article PMC10939098 (Emerging Microbes & Infections, 2024).
